Measurements published in ChEMBL document CHEMBL4152194, “Synthesis, molecular modeling studies and evaluation of antifungal activity of a novel series of thiazole derivatives” (Eur J Med Chem, 2018).
In brackets after ≈: the same amount, converted by molar mass.

Key:
Candida tropicalis = assay: Antifungal activity against Candida tropicalis ATCC 750 after 48 hrs by microbroth dilution assay; assay type: functional; details: ATCC 750, 48 h
Pichia kudriavzevii = assay: Antifungal activity against Candida krusei ATCC 20298 after 48 hrs by microbroth dilution assay; assay type: functional; details: ATCC 20298, 48 h
Candida parapsilosis = assay: Antifungal activity against Candida parapsilosis ATCC 22019 after 48 hrs by microbroth dilution assay; assay type: functional; details: Lodderomyces parapsilosis, ATCC 22019, 48 h
Candida albicans = assay: Antifungal activity against Candida albicans ATCC 18804 after 48 hrs by microbroth dilution assay; assay type: functional; details: ATCC 18804, 48 h
[1] = tested on: Paracoccidioides brasiliensis; assay: Antifungal activity against Paracoccidioides brasiliensis Pb18 after 7 days by microbroth dilution assay; assay type: functional; details: 168 h
Cryptococcus neoformans = assay: Antifungal activity against Cryptococcus neoformans ATCC 24067 after 72 hrs by microbroth dilution assay; assay type: functional; details: ATCC 24067, 72 h
[2] = tested on: Cryptococcus bacillisporus; assay: Antifungal activity against Cryptococcus gattii ATCC 32608 after 72 hrs by microbroth dilution assay; assay type: functional; details: ATCC 32608, 72 h
[3] = Cytotoxicity against human HEK293 cells assessed as cell viability at 250 uM after 72 hrs by MTT assay relative to control; assay type: cell-based; details: read-out: Activity
HEK293 = assay: Cytotoxicity against human HEK293 cells after 72 hrs by MTT assay; assay type: cell-based; details: HEK293, 72 h

SMILES: CCC/C(CC)=N/NC(N)=S
- MIC (Candida tropicalis): > 250 µM
- MIC (Pichia kudriavzevii): > 250 µM
- MIC (Candida parapsilosis): > 250 µM
- MIC (Candida albicans): > 250 µM
- MIC [1]: > 250 µM
- MIC (Cryptococcus neoformans): > 250 µM
- MIC [2]: > 250 µM

SMILES: COc1ccc(-c2csc(N/N=C(C)/C=C/c3ccc(O)c(OC)c3)n2)cc1
- MIC (Candida tropicalis): 250 µM (≈ 98.9 µg/mL)
- MIC (Pichia kudriavzevii): 250 µM (≈ 98.9 µg/mL)
- MIC (Candida parapsilosis): 250 µM (≈ 98.9 µg/mL)
- MIC (Candida albicans): 250 µM (≈ 98.9 µg/mL)
- MIC (Cryptococcus neoformans): 250 µM (≈ 98.9 µg/mL)
- MIC [2]: 250 µM (≈ 98.9 µg/mL)

SMILES: Clc1ccc(-c2csc(N/N=C/C=C/c3ccccc3)n2)cc1
- MIC (Candida tropicalis): > 250 µM
- MIC (Pichia kudriavzevii): > 250 µM
- MIC (Candida parapsilosis): > 250 µM
- MIC (Candida albicans): > 250 µM
- MIC [1]: > 250 µM
- MIC (Cryptococcus neoformans): > 250 µM
- MIC [2]: > 250 µM

SMILES: COc1cc(/C=C/C(C)=N/NC(N)=S)ccc1O
- MIC (Candida tropicalis): > 250 µM
- MIC (Pichia kudriavzevii): > 250 µM
- MIC (Candida parapsilosis): > 250 µM
- MIC (Candida albicans): > 250 µM
- MIC [1]: > 250 µM
- MIC (Cryptococcus neoformans): > 250 µM
- MIC [2]: > 250 µM

SMILES: CCC(C)n1ncn(-c2ccc(N3CCN(c4ccc(OCC5COC(Cn6cncn6)(c6ccc(Cl)cc6Cl)O5)cc4)CC3)cc2)c1=O (configuration not stated) [ITRACONAZOLE]
- MIC (Candida tropicalis): 0.09 µM (≈ 0.0635 µg/mL)
- viability at 72 h, 250 µM [3]: 90.8%
- MIC (Pichia kudriavzevii): 0.18 µM (≈ 0.127 µg/mL)
- IC50 (HEK293): > 250 µM
- MIC (Candida parapsilosis): 0.18 µM (≈ 0.127 µg/mL)
- MIC (Candida albicans): 0.7 µM (≈ 0.494 µg/mL)
- MIC [1]: 0.06 µM (≈ 0.0423 µg/mL)
- MIC (Cryptococcus neoformans): 0.04 µM (≈ 0.0282 µg/mL)
- MIC [2]: 0.18 µM (≈ 0.127 µg/mL)

SMILES: COc1cc(/C=C/C(C)=N/Nc2nc(-c3ccc(Cl)cc3)cs2)ccc1O
- MIC (Candida tropicalis): 250 µM (≈ 100 µg/mL)
- MIC (Pichia kudriavzevii): 250 µM (≈ 100 µg/mL)
- MIC (Candida parapsilosis): 250 µM (≈ 100 µg/mL)
- MIC (Candida albicans): 250 µM (≈ 100 µg/mL)
- MIC [1]: 62.5 µM (≈ 25 µg/mL)
- MIC (Cryptococcus neoformans): 250 µM (≈ 100 µg/mL)
- MIC [2]: 125 µM (≈ 50 µg/mL)

SMILES: OC(Cn1cncn1)(Cn1cncn1)c1ccc(F)cc1F [FLUCONAZOLE]
- MIC (Candida tropicalis): 6.5 µM (≈ 1.99 µg/mL)
- viability at 72 h, 250 µM [3]: 99.2%
- MIC (Pichia kudriavzevii): 104 µM (≈ 32 µg/mL)
- IC50 (HEK293): > 250 µM
- MIC (Candida parapsilosis): 3.2 µM (≈ 0.98 µg/mL)
- MIC (Candida albicans): 1.6 µM (≈ 0.49 µg/mL)
- MIC (Cryptococcus neoformans): 6.2 µM (≈ 1.9 µg/mL)
- MIC [2]: 12.7 µM (≈ 3.89 µg/mL)

SMILES: CC(C)(C)/C=N/Nc1nc(-c2ccccc2)cs1
- MIC (Candida tropicalis): 31.2 µM (≈ 8.09 µg/mL)
- MIC (Pichia kudriavzevii): 5.8 µM (≈ 1.5 µg/mL)
- MIC (Candida parapsilosis): 3.9 µM (≈ 1.01 µg/mL)
- MIC (Candida albicans): 3.9 µM (≈ 1.01 µg/mL)
- MIC [1]: 125 µM (≈ 32.4 µg/mL)
- MIC (Cryptococcus neoformans): 1.9 µM (≈ 0.493 µg/mL)
- MIC [2]: 1.9 µM (≈ 0.493 µg/mL)

SMILES: C[C@@H]1[C@H](O)[C@@H](C)/C=C/C=C/C=C/C=C/C=C/C=C/C=C/[C@H](O[C@@H]2O[C@H](C)[C@@H](O)[C@H](N)[C@@H]2O)C[C@@H]2O[C@](O)(C[C@@H](O)C[C@@H](O)[C@H](O)CC[C@@H](O)C[C@@H](O)CC(=O)O[C@H]1C)C[C@H](O)[C@H]2C(=O)O [AMPHOTERICIN B]
- MIC (Candida tropicalis): 1.2 µM (≈ 1.11 µg/mL)
- MIC (Pichia kudriavzevii): 0.5 µM (≈ 0.462 µg/mL)
- IC50 (HEK293): 78.6 µM
- MIC (Candida parapsilosis): 0.5 µM (≈ 0.462 µg/mL)
- MIC (Candida albicans): 0.3 µM (≈ 0.277 µg/mL)
- MIC [1]: 0.06 µM (≈ 0.0554 µg/mL)
- MIC (Cryptococcus neoformans): 0.09 µM (≈ 0.0832 µg/mL)
- MIC [2]: 0.08 µM (≈ 0.0739 µg/mL)

SMILES: CC(C)(C)/C=N/NC(N)=S
- MIC (Candida tropicalis): > 250 µM
- MIC (Pichia kudriavzevii): > 250 µM
- MIC (Candida parapsilosis): > 250 µM
- MIC (Candida albicans): > 250 µM
- MIC [1]: > 250 µM
- MIC (Cryptococcus neoformans): > 250 µM
- MIC [2]: > 250 µM

SMILES: COc1cc(/C=C/C(C)=N/Nc2nc(-c3ccccc3)cs2)ccc1O
- MIC (Candida tropicalis): 250 µM (≈ 91.4 µg/mL)
- MIC (Pichia kudriavzevii): 250 µM (≈ 91.4 µg/mL)
- MIC (Candida parapsilosis): 250 µM (≈ 91.4 µg/mL)
- MIC (Candida albicans): 250 µM (≈ 91.4 µg/mL)
- MIC [1]: 250 µM (≈ 91.4 µg/mL)
- MIC (Cryptococcus neoformans): 250 µM (≈ 91.4 µg/mL)
- MIC [2]: 250 µM (≈ 91.4 µg/mL)

SMILES: C/C(=N\Nc1nc(-c2ccc(Cl)cc2)cs1)c1ccc(N)cc1
- MIC (Candida tropicalis): > 250 µM
- MIC (Pichia kudriavzevii): > 250 µM
- MIC (Candida parapsilosis): > 250 µM
- MIC (Candida albicans): > 250 µM
- MIC [1]: > 250 µM
- MIC (Cryptococcus neoformans): > 250 µM
- MIC [2]: > 250 µM
